Where “and” joins values, the source holds several entries; their conditions need not be identical. Equal entries are not always repeated.
How the values were obtained:
[1] = test system: HUVEC, fibroblasts, Mel 57 and T47D cells; assay: Cell-specificity assay: incorporation of [3H]thymidine; format: cell-based; conditions: bFGF-induced HUVEC and fibroblast proliferation vs NBCS-induced Mel 57 and T47D proliferation; FIG. 1
Experimental: Cell-Specificity Assay: Incorporation of [^3H]Thymidine
Confluent cultures of HUVEC, fibroblasts, Mel 57 and T47D cells were detached by trypsin/EDTA solution, and allowed to adhere and spread at an appropriate cell density on gelatine-coated dishes in M199-HEPES medium or DMEM-HEPES medium both supplemented with 10% heat-inactivated new born calve serum (NBCS) and penidillin/streptomycin. After 18 h the HUVEC and fibroblasts were stimulated with 2.5 ng/ml FGF-2 in M199-HEPES, penicillin/streptomycin, 10% NBCS and 0.1% DMSO in duplicate wells, with or without the test compounds. […] Subsequently, the cells were washed with PBS, [3H]-labelled DNA were fixed with methanol, and precipitated in 5% trichloroacetic-acid, and finally dissolved in 0.5 ml 0.3 M NaOH and counted in a liquid scintillation counter.
All outcome measures were measured in singular, i.e. one measurement per culture well. The proliferation of HUVEC, fibroblast, Mel 57, and T47D tumor cells was expressed as mean±range [3H]-thymidine incorporation (dpm) of duplicate wells.
The percentage of inhibition of FGF-2-induced HUVEC and fibroblast proliferation by the compounds was calculated as follows: [formula] […] The percentage of inhibition of the Mel 57 and T47D tumor cell proliferation by the compounds will be calculated as follows: [formula] […]

[2] = test system: HUVEC; assay: Cell morphology and proliferation assay; format: cell-based
Experimental: Cell Morphology and Proliferation Assay
One week before the assay, a vial with HUVEC (passage 1) was thawed and cultured (after a split ratio of 1:3) to confluence (passage 2). The confluent culture of HUVEC was detached by trypsin/EDTA solution, and allowed to adhere and spread at cell density of 10, 50 and 100% confluency on gelatine-coated dishes in M199-HEPES medium supplemented with 10% heat-inactivated NBCS, 10% human serum and penicillin/streptomycin. After 18 h the HUVEC were preincubated with the test compounds for 4 hours. Then the HUVEC were washed and restimulated in the absence or presence of the test compounds and the reference compounds with 2.5 ng/ml FGF-2 in M199-HEPES, penicillin/streptomycin, 10% NBCS, 10% human serum and 0.1% DMSO in triplicate wells for 5 (10% confluency) or 3 days (50 and 100% confluency), with or without the test compounds. The cell number was determined by image analysis (P. Koolwijk, 2001)
To investigate the mode of action of the compound on proliferating and non-proliferating HUVEC, experiments were performed on 10%, 50% and 100% confluent monolayers of HUVEC. The 10% and 50% confluent HUVEC monolayers represent the status of angiogenic endothelial cells able to proliferate and migrate when stimulated. The 100% HUVEC monolayers represent the quiescent character of the endothelial cells in the existing blood vessel. The 4-hour preincubation experiments were performed to be able to discriminate between general toxicity and the induction of apoptosis.

[3] = test system: neovascularisation; assay: Mouse anti-angiogenesis assay (bFGF sponge implant); format: in vivo; conditions: for neovascularisation in mice (percent inhibition): Days 3-9
Experimental: NMRI female mice (SPF Bom:NMRI) weighing 25-27 g were obtained from M&B, Ejby, Lille Skensved, Denmark. They were housed in a facility where light was controlled on a 12 hour light-dark cycle. […] The animals were fed a pelleted rodent diet (Altromin 1324, Brogarden, Denmark) ad libitum and had free access to tap water. All animals were observed daily for clinical signs.
Slow-release pellets containing 400 ng of human basic fibroblast growth factor (Innovative Research of America, Florida, USA) were circular and with a diameter of 1.5 mm. The angiogenic peptide was guarantied by the supplier to be released over a period of 10 days.
The mice were anaesthetized using inhalation anaesthesia (halothane/N2O and oxygen). The skin of the back was shaved using an electric shaver and the skin was disinfected using 70% ethanol. A 5 mm incision was made transversely in close proximity to the shoulder blades and a 2 cm pocket reaching caudally to the pelvic region was created by blunt dissection, carefully separating the skin from the fascie. A polyurethane sponge with the dimension of 8×5×3 mm containing a slow-release pellet of 400 ng bFGF was placed at the caudal end of the pocket and the incision was closed by a single or double invert suture using Perma-Hand Seide 4/0 (Johnson & Johnson, Brussels, Belgium). The animals were treated by an analgesic subcutaneous injection of carprofen 2 mg/kg.
The angiogenic response was quantitated as previously described (Lichtenberg et al., 1997, 1999 & 2002). Briefly, twenty minutes before euthanasia 1 μCi of ^125I-labelled immuno-globulin (Amersham, UK) in 50 μl of 0.9% NaCl was injected intravenously into a tail vein. The animals were euthanised by O2/CO2 asphyxiation and the skin overlying the sponge implant was removed. The sponge implant with the pellet was placed in a plastic vial containing 4% formalin and the ^125I-activity was measured in a γ-counter. Differences in angiogenic response measured as ^125I-activity in cpm were assessed by Student's t-test, grouped data, with P<0.05 regarded as statistically significant. Data was expressed as means±SEM.
Three separate experiments were conducted: Two experiments were performed with Compound a and one experiment was performed with Compound b. In the first two experiments with Compound a, 3 groups each comprising 5 animals was treated orally with Compound a at the dose levels of 0 (saline), 5 and 10 mg/kg/day (experiment 1) and with 20 and 40 mg/kg/day (experiment 2). In the third experiment, 3 groups each comprising 6 animals was treated orally with the vehicle (saline) and 80 mg/kg/day of Compound a. In all experiments the animals were treated from Days 3-9 and killed at day 10.

[4] = test system: B16/F10 melanoma cells; assay: Mouse metastasis assay; format: in vivo, mice; conditions: for Colony Count (B16 melanoma lung colonies): day 14, mean ± SEM; for % Reduction of melanoma lung colonies vs vehicle: C57BL/6 mice
From the text: Female C57BL/6 mice were supplied and delivered by Charles River UK Ltd. The animals were approximately 6 weeks of age at the start of the study. The body weights at the start of dosing were in the range 10-21 g. The mice were housed in solid-bottomed plastic cages, containing wood shavings, in groups of up to 10. During acclimatization, the rooms and cages were cleaned at regular intervals to maintain hygiene. The mice were fed an expanded rodent diet ad libitum and allowed free access to mains tap water. […] (McKay, 2002).
Data was expressed as means±SEM and analysed using appropriate statistical methods. Statistical significance was assumed when P<0.05.
Two separate studies were conducted: One was performed with Compound a (experiment 1) and one with Compound b (experiment 2). In each study there were 4 treatment groups. The treatment groups were as follows:
Treatments for groups 24 were administered orally, by gavage. The dose volume used was 20 ml/kg for groups 2 and 4 and 15 ml/kg for group 3.
C57BU6 mice were injected intravenously, via a tail vein, with 0.1 ml of a suspension of B16/F10 melanoma cells (approximately 3×10^5 cells/mouse) on day 0. With the exception of the untreated group, animals were dosed orally, by gavage, or intravenously, according to their allocated treatment group once daily, from day −2 to day 10 (13 administrations). The animals were killed on day 14 (14 days after injection of the tumour cells). The lungs from each animal were removed and weighed prior to fixing in Bouin's solution.

[5] = 60 mg/kg p.o. once daily day -2 to day 10, C57BL/6 mice
[6] = 80 mg/kg p.o. once daily day -2 to day 10, C57BL/6 mice

Row | Structure (SMILES) | cell-specificity of inhibition of proliferation [1] | inhibition of HUVEC proliferation ([2]; 4-hour preincubation, compound then removed for the rest of the stimulation period) | cytotoxicity (HUVEC morphology, floating dead cells) ([2]; 100% confluent monolayers, culture periods with the compound) | cytotoxicity (cell death, floating cells in the media) ([2]; HUVEC, 4-hour preincubation period) | inhibition of HUVEC proliferation ([2]; continuous presence of the compound, 10% confluent monolayers) | inhibition of HUVEC proliferation ([2]; continuous presence of the compound, 50% confluent monolayers) | inhibition of HUVEC proliferation ([2]; continuous presence of the compound, 100% confluent monolayers) | neovascularisation in mice (percent inhibition) ([3]; 5 mg/kg/day orally) | neovascularisation in mice (percent inhibition) ([3]; 20 mg/kg/day orally) | No Effect Level (NOEL) ([3]; oral, neovascularisation in mice) | Colony Count (B16 melanoma lung colonies) [4, 5] | % Reduction of melanoma lung colonies vs vehicle ([4]; 60 mg/kg p.o.) | Colony Count (B16 melanoma lung colonies) [4, 6] | % Reduction of melanoma lung colonies vs vehicle ([4]; 80 mg/kg p.o.) | tolerability (signs of toxicity, body weight gain) ([3]; mice, selected dose levels, oral)
1 | O=C(Nc1ccc([N+](=O)[O-])cc1)Nc1ccc(Br)cc1-c1nnn[nH]1 [Compound a, N-4-Nitrophenyl-N′-[4-bromo-2-(1-H-tetrazol-5-yl)phenyl]urea] | more potent inhibitor of the bFGF-induced HUVEC and fibroblast proliferation | not able to inhibit HUVEC proliferation significantly | no change of HUVEC morphology and the amount of floating dead cells | No signs of any cytotoxicity | clear inhibitory effect | slightly observed | no effect | 15% | 28% | 5 mglkg/day | 64.68 ± 2.65 | 17% and 17.38% | 61.85 ± 2.89 | 21% | –
2 | O=C(Nc1cc(C(F)(F)F)cc(C(F)(F)F)c1)Nc1ccc(Br)cc1-c1nnn[nH]1 [Compound b, N-3,5-Di(trifluoromethyl)phenyl-N′-[4-bromo-2-(1-H-tetrazol-5-yl)phenyl]urea] | – | – | – | – | – | – | – | – | – | – | 41.55 ± 9.55 | 36% and 36.45% | 36.65 ± 5.82 | 44% and 43.97% | no signs of toxicity or changes of the body weight gain

— patent US20060058395A1, “Compounds useful for the treatment of diseases responsive to antiangiogenetic therapy” (NEUROSEARCH A/S, priority 2002, published 2006)
